Columns and labels:
Assay in all cases: Kinase inhibitor library screening, PrestoBlue cell viability, 1 or 10 μM, 72 h
A375 cells (parental) = conditions: A375 Parental
Method: (§1) After 72 h of treatment, cell viability was assessed using the PrestoBlue Cell Viability Reagent (ThermoFisher Scientific). Measurements were performed with the CLARIOstar Monochromator microplate reader (BMG Labtech).
(§2) Kinase inhibitor library screening. […] Each cell line was treated in its sensitive form (parental), and also as 2 resistant derivatives, which were made resistant to either Vemurafenib (XP) or Dabrafenib (GP). Drugs were added at 2 different concentrations, 1 and 10 μM, for 72 h and cell viability was assessed using the PrestoBlue Cell Viability assay. Results are depicted as % viability compared to untreated cells. Each cell line was analyzed at least in duplicate. […] (XLSX 95 kb)

[1] = tested on: 501Mel-XP cells (Vemurafenib-resistant); conditions: 501Mel XP
Method: as §1, §2

[2] = tested on: IGR37-GP cells (Dabrafenib-resistant); conditions: IGR37 GP
Method: as §1, §2

[3] = tested on: A375-XP cells (Vemurafenib-resistant); conditions: A375 XP
Method: as §1, §2

[4] = tested on: IGR37-XP cells (Vemurafenib-resistant); conditions: IGR37 XP
Method: as §1, §2

501Mel cells (parental) = conditions: 501Mel Parental
Method: as §1, §2

[5] = tested on: A375-GP cells (Dabrafenib-resistant); conditions: A375 GP
Method: as §1, §2

[6] = tested on: 501Mel-GP cells (Dabrafenib-resistant); conditions: 501Mel GP
Method: as §1, §2

IGR37 cells (parental) = conditions: IGR37 Parental
Method: as §1, §2

SMILES | cell viability (kinase inhibitor library screening) (A375 cells (parental); 1μΜ, in %) | cell viability (kinase inhibitor library screening) (A375 cells (parental); 10μΜ, in %) | cell viability (kinase inhibitor library screening) ([1]; 1μΜ, in %) | cell viability (kinase inhibitor library screening) ([1]; 10μΜ, in %) | cell viability (kinase inhibitor library screening) ([2]; 1μΜ, in %) | cell viability (kinase inhibitor library screening) ([2]; 10μΜ, in %) | cell viability (kinase inhibitor library screening) ([3]; 10μΜ, in %) | cell viability (kinase inhibitor library screening) ([4]; 1μΜ, in %) | cell viability (kinase inhibitor library screening) ([4]; 10μΜ, in %) | cell viability (kinase inhibitor library screening) (501Mel cells (parental); 1μΜ, in %) | cell viability (kinase inhibitor library screening) (501Mel cells (parental); 10μΜ, in %) | cell viability (kinase inhibitor library screening) ([5]; 1μΜ, in %) | cell viability (kinase inhibitor library screening) ([5]; 10μΜ, in %) | cell viability (kinase inhibitor library screening) ([6]; 1μΜ, in %) | cell viability (kinase inhibitor library screening) ([6]; 10μΜ, in %) | cell viability (kinase inhibitor library screening) (IGR37 cells (parental); 1μΜ, in %) | cell viability (kinase inhibitor library screening) (IGR37 cells (parental); 10μΜ, in %) | cell viability (kinase inhibitor library screening) ([3]; 1μΜ, in %) | further results
Clc1ccc(C2(c3ccc(-c4cn[nH]c4)cc3)CCNCC2)cc1 [AT7867] |  |  |  |  |  |  |  |  |  |  |  |  |  |  |  |  |  |  | cell viability (kinase inhibitor library screening) (A375 cells (parental); 10μΜ, 72 h): 58.0%; cell viability (kinase inhibitor library screening) (A375 cells (parental); 1μΜ, 72 h): 97.2%; cell viability (kinase inhibitor library screening) ([1]; 1μΜ, 72 h): 81.2%; cell viability (kinase inhibitor library screening) ([1]; 10μΜ, 72 h): 0.172%; cell viability (kinase inhibitor library screening) ([2]; 1μΜ, 72 h): 89.7%; cell viability (kinase inhibitor library screening) ([2]; 10μΜ, 72 h): 78.9%; cell viability (kinase inhibitor library screening) ([3]; 1μΜ, 72 h): 99.3%; cell viability (kinase inhibitor library screening) ([3]; 10μΜ, 72 h): 63.1%; cell viability (kinase inhibitor library screening) ([4]; 1μΜ, 72 h): 105.4%; cell viability (kinase inhibitor library screening) ([4]; 10μΜ, 72 h): 42.3%; cell viability (kinase inhibitor library screening) (501Mel cells (parental); 1μΜ, 72 h): 93.0%; cell viability (kinase inhibitor library screening) (501Mel cells (parental); 10μΜ, 72 h): 5.4%; cell viability (kinase inhibitor library screening) ([5]; 1μΜ, 72 h): 82.8%; cell viability (kinase inhibitor library screening) ([5]; 10μΜ, 72 h): 43.6%; cell viability (kinase inhibitor library screening) ([6]; 1μΜ, 72 h): 93.8%; cell viability (kinase inhibitor library screening) ([6]; 10μΜ, 72 h): 20.5%; cell viability (kinase inhibitor library screening) (IGR37 cells (parental); 1μΜ, 72 h): 98.1%; cell viability (kinase inhibitor library screening) (IGR37 cells (parental); 10μΜ, 72 h): 84.9%
COc1cc2nccc(Oc3ccc(NC(=O)Nc4ccc(F)cc4F)c(F)c3)c2cc1OC [Ki8751] | 96.1 | 75.1 | 89.9 | 74.9 | 88.2 | 88.8 | 97.9 | 88.9 | 70.9 | 96.7 | 85.3 | 94.2 | 77.5 | 97.3 | 80.7 | 93.0 | 84.9 |  | 
Cc1nc(Nc2ncc(C(=O)Nc3c(C)cccc3Cl)s2)cc(N2CCN(CCO)CC2)n1 [Dasatinib (BMS-354825)] | 68.7 | 30.8 | 88.2 | 63.3 | 91.4 | 66.8 | 57.8 | 88.2 | 39.8 | 91.7 | 73.7 | 63.7 | 48.1 | 96.7 | 77.1 | 98.7 | 80.2 | 70.6 | 
CNC(=O)c1cc(COc2nnc(Nc3ccc(Cl)cc3)c3ccoc23)ccn1 [Telatinib (BAY 57-9352)] | 99.4 | 95.9 |  | 68.9 | 94.5 | 88.0 | 95.7 | 98.1 | 70.8 | 96.8 | 90.0 | 98.3 | 92.0 | 99.0 | 76.1 | 99.2 | 97.3 | 96.6 | 

From paper PMC6364417, “Kinase inhibitor library screening identifies synergistic drug combinations effective in sensitive and resistant melanoma cells” (Journal of Experimental & Clinical Cancer Research : CR, 2019)
